Measurements as given in patent publication US12324769B1, “Double-network versatile hydrogel with antibacterial and drug sequential release capabilities” (Eye Institute of Shandong First Medical University, priority 2023, dated 2025).

What was measured:
[1] = cumulative release of PDRN and verteporfin in PBS at 37° C.; assay type: physicochemical; details: from SQPV hydrogel
[2] = tested on: Raw264.7 cells; assay: macrophage cytoskeleton staining after LPS/IFN-γ induced M1 polarization; assay type: cell-based; details: M1-induced Raw264.7, cytoskeleton staining
Description: The anti-inflammatory properties of SQPV hydrogel prepared in Embodiment 1, SQP hydrogel prepared in Comparative embodiment 1 and SQ hydrogel prepared in Comparative embodiment 2 are investigated. […] Therefore, regulating inflammatory response has become the key focus of developing ideal corneal substitutes. […] In this present disclosure, Raw264.7 cells are inoculated on a 6-well plate for 24 h, and then stimulated with LPS (100 nanograms per milliliter (ng/mL)) and interferon gamma (IFN-γ) (20 ng/mL) for 24 h to induce M1 polarization. Then, fresh hydrogel leaching solution is added, and after 24 h, the cytoskeleton is stained with CLSM to observe the morphological changes of macrophages.

Row | Substance | time until almost all encapsulated PDRN is released [1] [days] | macrophage polarization [2] | cumulative release of verteporfin ([1]; after 28 days of incubation) [%]
1 | polydeoxyribonucleotide [PDRN] | ≤ 7 | promotes macrophages to have M1 to M2 transformation | –
2 | verteporfin [reference compound] | – | – | 72
